The source made the active and inactive calls.
Columns and labels:
[1] = molecular target: Bone morphogenetic protein receptor type-1A (Homo sapiens, UniProt P36894)
[2] = molecular target: Cyclin-dependent kinase 4 (Homo sapiens, UniProt P11802)
[3] = molecular target: T1, Ephrin type-B receptor 4 (Homo sapiens, UniProt P54760)
T1 sequence (P54760 whole entry): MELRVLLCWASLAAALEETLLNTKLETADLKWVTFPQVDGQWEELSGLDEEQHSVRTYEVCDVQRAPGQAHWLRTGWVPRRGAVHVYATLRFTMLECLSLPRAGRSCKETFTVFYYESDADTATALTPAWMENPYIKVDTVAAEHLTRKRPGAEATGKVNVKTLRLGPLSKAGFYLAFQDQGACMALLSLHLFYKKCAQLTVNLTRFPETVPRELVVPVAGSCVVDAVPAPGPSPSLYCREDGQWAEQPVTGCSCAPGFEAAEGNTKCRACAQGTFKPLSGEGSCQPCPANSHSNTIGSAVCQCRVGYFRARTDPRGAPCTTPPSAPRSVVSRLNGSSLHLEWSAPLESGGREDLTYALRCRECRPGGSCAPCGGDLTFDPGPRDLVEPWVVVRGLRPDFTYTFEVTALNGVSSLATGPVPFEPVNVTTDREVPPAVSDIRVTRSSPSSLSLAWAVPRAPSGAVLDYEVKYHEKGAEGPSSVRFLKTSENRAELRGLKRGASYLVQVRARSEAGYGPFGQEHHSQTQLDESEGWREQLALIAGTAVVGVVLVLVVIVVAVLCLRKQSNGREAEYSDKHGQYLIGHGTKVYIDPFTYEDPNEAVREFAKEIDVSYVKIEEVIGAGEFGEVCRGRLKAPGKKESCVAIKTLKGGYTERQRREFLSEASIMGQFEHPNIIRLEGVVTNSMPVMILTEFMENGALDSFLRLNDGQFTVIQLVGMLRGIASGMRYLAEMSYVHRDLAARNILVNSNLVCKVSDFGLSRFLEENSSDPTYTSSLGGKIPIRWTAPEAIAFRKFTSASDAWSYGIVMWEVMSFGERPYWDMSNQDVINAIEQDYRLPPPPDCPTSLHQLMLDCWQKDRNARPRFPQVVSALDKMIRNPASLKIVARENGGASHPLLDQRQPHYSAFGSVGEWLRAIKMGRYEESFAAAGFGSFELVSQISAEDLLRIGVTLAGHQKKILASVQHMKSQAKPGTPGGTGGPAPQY

[4] = molecular target: Glycogen synthase kinase-3 alpha (Homo sapiens, UniProt P49840)
[5] = molecular target: GTP-binding protein 4 (Homo sapiens, UniProt Q9BZE4)
[6] = molecular target: T2, Mitogen-activated protein kinase kinase kinase 6 (Homo sapiens, UniProt O95382)
T2 sequence (O95382 whole entry): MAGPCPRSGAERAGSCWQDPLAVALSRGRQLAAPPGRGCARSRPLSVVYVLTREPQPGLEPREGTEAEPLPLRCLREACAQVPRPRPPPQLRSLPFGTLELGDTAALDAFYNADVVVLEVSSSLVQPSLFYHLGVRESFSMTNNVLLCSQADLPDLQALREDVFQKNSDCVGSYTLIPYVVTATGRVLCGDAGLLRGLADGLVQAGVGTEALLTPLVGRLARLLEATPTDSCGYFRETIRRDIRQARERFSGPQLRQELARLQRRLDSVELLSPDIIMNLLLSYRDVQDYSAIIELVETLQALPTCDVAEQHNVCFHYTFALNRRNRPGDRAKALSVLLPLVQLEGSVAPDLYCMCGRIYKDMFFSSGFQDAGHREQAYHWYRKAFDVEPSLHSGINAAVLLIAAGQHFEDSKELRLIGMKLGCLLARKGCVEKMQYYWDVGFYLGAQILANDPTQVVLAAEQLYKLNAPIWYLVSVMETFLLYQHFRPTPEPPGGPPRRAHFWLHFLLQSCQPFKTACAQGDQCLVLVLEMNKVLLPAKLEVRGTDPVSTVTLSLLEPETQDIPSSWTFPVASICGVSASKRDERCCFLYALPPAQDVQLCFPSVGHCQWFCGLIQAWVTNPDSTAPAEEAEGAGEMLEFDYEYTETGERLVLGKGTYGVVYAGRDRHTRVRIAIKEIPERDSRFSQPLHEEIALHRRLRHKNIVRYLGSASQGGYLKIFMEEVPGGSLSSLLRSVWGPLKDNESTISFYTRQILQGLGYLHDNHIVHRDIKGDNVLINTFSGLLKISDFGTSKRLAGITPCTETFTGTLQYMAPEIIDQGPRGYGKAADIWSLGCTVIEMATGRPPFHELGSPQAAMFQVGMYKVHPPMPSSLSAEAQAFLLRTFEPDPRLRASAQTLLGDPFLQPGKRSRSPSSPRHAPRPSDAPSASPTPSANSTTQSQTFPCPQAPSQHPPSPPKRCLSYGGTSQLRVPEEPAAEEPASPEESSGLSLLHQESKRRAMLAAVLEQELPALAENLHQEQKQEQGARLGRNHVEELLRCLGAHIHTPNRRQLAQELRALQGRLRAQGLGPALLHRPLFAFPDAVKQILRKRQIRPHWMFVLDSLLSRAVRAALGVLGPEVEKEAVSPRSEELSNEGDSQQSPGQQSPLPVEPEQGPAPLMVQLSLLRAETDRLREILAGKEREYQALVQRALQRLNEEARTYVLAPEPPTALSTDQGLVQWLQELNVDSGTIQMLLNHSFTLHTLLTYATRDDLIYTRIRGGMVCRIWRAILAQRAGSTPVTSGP

[7] = molecular target: Myosin light chain kinase, smooth muscle (Homo sapiens, UniProt Q15746)
[8] = molecular target: TGF-beta receptor type-2 (Homo sapiens, UniProt P37173)
[9] = molecular target: Elongation factor Tu, mitochondrial (Homo sapiens, UniProt P49411)
[10] = molecular target: Platelet-derived growth factor receptor beta (Homo sapiens, UniProt P09619)
[11] = molecular target: Protein-tyrosine kinase 2-beta (Homo sapiens, UniProt Q14289)
[12] = molecular target: Insulin-like growth factor 1 receptor (Homo sapiens, UniProt P08069)
[13] = molecular target: Dual specificity tyrosine-phosphorylation-regulated kinase 1A (Homo sapiens, UniProt Q13627)
Note: in the data inactive means no Kd found up to 30 µM.

Sequence of Myosin light chain kinase, smooth muscle (Q15746 whole entry): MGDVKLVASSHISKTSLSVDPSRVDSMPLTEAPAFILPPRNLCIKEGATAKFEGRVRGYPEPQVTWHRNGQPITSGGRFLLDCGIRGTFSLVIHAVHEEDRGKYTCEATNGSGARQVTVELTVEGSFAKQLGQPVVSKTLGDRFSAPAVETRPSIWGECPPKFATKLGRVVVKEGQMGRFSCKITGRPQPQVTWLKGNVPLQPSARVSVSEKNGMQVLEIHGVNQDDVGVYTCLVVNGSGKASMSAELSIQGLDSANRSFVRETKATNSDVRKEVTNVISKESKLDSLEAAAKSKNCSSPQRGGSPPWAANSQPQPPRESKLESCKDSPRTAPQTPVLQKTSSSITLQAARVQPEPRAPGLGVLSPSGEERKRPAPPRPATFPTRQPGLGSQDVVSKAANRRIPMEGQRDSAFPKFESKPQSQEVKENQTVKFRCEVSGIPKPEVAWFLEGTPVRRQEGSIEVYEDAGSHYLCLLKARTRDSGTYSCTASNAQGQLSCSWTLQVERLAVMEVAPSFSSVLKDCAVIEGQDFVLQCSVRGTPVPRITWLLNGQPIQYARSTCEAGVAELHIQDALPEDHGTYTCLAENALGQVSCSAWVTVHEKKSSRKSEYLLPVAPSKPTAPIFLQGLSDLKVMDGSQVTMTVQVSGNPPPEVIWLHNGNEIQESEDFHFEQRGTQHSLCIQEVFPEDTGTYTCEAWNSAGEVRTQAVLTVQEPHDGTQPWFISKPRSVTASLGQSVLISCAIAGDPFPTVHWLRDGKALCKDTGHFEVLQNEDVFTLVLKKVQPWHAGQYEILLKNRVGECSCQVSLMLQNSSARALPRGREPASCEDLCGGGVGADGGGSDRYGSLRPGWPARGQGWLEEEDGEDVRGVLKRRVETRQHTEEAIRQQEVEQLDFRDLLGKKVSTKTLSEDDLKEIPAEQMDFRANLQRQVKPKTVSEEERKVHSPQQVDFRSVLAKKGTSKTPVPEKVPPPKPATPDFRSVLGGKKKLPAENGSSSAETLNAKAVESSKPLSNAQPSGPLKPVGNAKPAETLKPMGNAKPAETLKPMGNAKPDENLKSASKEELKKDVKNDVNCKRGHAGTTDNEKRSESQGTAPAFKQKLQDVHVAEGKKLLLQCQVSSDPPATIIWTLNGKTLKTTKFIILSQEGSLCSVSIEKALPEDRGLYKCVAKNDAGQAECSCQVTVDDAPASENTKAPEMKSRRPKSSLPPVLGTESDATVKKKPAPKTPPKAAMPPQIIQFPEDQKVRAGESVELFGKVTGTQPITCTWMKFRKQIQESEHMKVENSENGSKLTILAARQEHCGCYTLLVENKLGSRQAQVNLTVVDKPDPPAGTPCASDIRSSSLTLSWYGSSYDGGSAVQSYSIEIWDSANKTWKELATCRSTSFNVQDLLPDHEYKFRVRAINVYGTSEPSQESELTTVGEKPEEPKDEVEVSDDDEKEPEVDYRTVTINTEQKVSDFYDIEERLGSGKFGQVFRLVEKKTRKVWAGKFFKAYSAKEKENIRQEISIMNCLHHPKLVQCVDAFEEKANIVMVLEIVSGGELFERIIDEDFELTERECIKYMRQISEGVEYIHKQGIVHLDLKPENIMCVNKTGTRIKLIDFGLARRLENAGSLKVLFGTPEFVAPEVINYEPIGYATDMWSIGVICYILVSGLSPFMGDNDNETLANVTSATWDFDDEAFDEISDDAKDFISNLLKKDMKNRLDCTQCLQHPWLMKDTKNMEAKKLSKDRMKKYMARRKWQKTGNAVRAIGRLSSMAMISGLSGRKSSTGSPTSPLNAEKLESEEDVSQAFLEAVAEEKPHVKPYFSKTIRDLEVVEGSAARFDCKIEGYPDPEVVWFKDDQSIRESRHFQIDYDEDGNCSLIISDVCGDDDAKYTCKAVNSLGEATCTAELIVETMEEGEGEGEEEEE
Sequence of TGF-beta receptor type-2 (P37173 whole entry): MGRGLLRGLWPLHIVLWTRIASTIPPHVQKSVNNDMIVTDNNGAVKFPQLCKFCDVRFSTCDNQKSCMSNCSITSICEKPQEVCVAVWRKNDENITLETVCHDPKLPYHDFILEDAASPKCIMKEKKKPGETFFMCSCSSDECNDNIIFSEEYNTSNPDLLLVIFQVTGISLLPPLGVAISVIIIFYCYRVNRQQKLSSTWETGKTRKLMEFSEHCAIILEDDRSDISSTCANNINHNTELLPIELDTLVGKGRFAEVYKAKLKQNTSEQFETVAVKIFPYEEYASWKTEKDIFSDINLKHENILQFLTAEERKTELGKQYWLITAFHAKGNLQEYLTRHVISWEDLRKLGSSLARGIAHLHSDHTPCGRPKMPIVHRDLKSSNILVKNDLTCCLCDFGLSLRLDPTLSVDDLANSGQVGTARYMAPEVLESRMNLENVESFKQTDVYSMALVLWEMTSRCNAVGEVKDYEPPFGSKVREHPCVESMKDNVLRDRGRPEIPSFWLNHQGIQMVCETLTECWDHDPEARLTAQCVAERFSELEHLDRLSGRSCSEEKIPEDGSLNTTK
Sequence of Platelet-derived growth factor receptor beta (P09619 whole entry): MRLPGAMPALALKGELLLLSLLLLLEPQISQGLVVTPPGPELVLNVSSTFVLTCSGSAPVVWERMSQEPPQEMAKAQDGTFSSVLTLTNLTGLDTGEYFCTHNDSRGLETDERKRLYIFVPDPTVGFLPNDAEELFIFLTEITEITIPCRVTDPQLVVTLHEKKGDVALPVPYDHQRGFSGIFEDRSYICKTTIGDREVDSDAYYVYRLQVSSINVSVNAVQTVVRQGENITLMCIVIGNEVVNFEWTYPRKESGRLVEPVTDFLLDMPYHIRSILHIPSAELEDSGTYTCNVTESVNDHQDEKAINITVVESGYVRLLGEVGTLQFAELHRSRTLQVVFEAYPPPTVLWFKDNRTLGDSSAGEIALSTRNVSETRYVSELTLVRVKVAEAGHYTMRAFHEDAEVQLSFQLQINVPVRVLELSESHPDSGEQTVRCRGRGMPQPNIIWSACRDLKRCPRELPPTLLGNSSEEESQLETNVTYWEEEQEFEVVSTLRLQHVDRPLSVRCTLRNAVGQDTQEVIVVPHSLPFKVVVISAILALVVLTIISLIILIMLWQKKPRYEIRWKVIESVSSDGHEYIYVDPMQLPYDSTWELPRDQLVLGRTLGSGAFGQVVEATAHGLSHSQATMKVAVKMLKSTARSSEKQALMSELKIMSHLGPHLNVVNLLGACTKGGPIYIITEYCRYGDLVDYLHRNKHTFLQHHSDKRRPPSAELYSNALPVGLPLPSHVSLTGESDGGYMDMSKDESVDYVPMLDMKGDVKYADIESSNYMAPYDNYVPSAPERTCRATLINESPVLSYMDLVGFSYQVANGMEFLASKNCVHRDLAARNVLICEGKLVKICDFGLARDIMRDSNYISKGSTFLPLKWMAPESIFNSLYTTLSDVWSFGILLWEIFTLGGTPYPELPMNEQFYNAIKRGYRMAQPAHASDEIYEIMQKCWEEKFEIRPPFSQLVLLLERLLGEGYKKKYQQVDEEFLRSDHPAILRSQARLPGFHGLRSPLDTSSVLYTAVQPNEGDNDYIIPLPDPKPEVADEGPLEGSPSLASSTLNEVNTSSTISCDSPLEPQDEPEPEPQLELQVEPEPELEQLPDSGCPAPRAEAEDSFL
Sequence of Protein-tyrosine kinase 2-beta (Q14289 whole entry): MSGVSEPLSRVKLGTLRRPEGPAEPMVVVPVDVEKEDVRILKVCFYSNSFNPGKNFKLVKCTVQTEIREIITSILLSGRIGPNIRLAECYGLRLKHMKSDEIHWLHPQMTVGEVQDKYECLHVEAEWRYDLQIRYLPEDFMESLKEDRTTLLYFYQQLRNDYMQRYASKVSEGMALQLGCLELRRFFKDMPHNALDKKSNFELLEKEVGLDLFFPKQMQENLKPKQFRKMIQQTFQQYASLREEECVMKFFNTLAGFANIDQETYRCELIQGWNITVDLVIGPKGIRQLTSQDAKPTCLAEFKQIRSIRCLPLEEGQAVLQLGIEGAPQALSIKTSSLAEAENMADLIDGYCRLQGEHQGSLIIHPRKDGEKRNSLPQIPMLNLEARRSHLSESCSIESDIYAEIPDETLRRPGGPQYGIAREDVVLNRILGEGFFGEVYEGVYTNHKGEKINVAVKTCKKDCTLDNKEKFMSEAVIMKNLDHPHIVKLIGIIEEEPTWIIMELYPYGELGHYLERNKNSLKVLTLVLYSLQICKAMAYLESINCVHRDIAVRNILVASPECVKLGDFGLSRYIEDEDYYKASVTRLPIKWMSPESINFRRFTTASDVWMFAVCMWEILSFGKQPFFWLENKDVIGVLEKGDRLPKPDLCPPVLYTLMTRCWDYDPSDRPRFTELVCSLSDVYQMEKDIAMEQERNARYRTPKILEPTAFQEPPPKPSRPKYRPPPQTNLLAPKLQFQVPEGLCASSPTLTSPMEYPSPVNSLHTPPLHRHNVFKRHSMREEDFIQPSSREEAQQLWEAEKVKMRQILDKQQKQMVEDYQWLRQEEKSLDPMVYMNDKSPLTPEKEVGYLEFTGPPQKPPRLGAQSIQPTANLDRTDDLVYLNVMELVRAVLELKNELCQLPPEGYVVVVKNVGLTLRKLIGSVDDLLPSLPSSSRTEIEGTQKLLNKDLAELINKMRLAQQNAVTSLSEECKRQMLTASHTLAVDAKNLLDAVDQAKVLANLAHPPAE
Sequence of Cyclin-dependent kinase 4 (P11802 whole entry): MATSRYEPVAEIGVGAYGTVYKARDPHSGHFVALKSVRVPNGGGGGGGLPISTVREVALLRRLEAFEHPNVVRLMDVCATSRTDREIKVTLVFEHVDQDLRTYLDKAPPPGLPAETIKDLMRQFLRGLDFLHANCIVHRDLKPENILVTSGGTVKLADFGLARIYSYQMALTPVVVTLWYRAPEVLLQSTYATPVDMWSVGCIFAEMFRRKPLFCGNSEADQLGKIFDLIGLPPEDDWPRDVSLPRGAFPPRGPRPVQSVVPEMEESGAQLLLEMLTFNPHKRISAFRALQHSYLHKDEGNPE

| Compound | Kd [5] | Kd [9] | Kd [1] | Kd [2] | Kd [3] | Kd [4] | Kd [6] | Kd [7] | Kd [8] | Kd [10] | Kd [11] | Kd [12] | Kd [13] |
| --- | --- | --- | --- | --- | --- | --- | --- | --- | --- | --- | --- | --- | --- |
| CN(c1ncccc1CNc1nc(Nc2ccc3c(c2)CC(=O)N3)ncc1C(F)(F)F)S(C)(=O)=O [PF-00562271] | > 30 µM (inactive) | > 30 µM (inactive) | > 30 µM (inactive) | > 30 µM (inactive) | > 30 µM (inactive) | 0.845 µM (active) | > 30 µM (inactive) | > 30 µM (inactive) | > 30 µM (inactive) |  |  |  |  |
| C[C@]1(O)C[C@@H](c2nc(-c3ccc4ccc(-c5ccccc5)nc4c3)c3c(N)nccn32)C1 [LINSITINIB] | > 30 µM (inactive) | > 30 µM (inactive) | > 30 µM (inactive) | > 30 µM (inactive) | > 30 µM (inactive) |  | > 30 µM (inactive) | > 30 µM (inactive) | > 30 µM (inactive) | > 30 µM (inactive) | > 30 µM (inactive) |  |  |
| NC[C@@](O)(c1ccc(Cl)cc1)c1ccc(-c2cn[nH]c2)cc1 [AT-13148] | > 30 µM (inactive) | > 30 µM (inactive) | > 30 µM (inactive) | > 30 µM (inactive) | > 30 µM (inactive) | > 30 µM (inactive) | > 30 µM (inactive) | > 30 µM (inactive) |  | > 30 µM (inactive) | > 30 µM (inactive) | > 30 µM (inactive) |  |
| Cn1c(=O)n(-c2ccc(C(C)(C)C#N)cc2)c2c3cc(-c4cnc5ccccc5c4)ccc3ncc21 [DACTOLISIB] | > 30 µM (inactive) | > 30 µM (inactive) | > 30 µM (inactive) | > 30 µM (inactive) | > 30 µM (inactive) |  | > 30 µM (inactive) | > 30 µM (inactive) | > 30 µM (inactive) |  | > 30 µM (inactive) |  |  |
| COc1cc2c(Oc3ccc4[nH]c(C)cc4c3F)ncnc2cc1OCCCN1CCCC1 [CEDIRANIB] | > 30 µM (inactive) | > 30 µM (inactive) |  |  |  |  |  |  |  |  |  |  |  |
| CN1CCN(c2nc(C3=C(c4c[nH]c5ccccc45)C(=O)NC3=O)c3ccccc3n2)CC1 [SOTRASTAURIN] | 8.2 µM | > 30 µM (inactive) | > 30 µM (inactive) | > 30 µM (inactive) | > 30 µM (inactive) | 1.2 µM (active) | > 30 µM (inactive) | > 30 µM (inactive) | > 30 µM (inactive) |  | > 30 µM (inactive) | > 30 µM (inactive) | > 30 µM (inactive) |
| CC1(COc2ccc3c(c2)ncn3-c2ccc3cccc(N4CCC(N)CC4)c3n2)COC1 [CRENOLANIB] | > 30 µM (inactive) | > 30 µM (inactive) | > 30 µM (inactive) | > 30 µM (inactive) | > 30 µM (inactive) | > 30 µM (inactive) | > 30 µM (inactive) | > 30 µM (inactive) | > 30 µM (inactive) |  | > 30 µM (inactive) | > 30 µM (inactive) | 4.97 µM (active) |
| CCN1CCN(Cc2ccc(Nc3ncc(F)c(-c4cc(F)c5nc(C)n(C(C)C)c5c4)n3)nc2)CC1 [ABEMACICLIB] | > 30 µM (inactive) | > 30 µM (inactive) | > 30 µM (inactive) |  | > 30 µM (inactive) | 0.013 µM (active) | > 30 µM (inactive) | > 30 µM (inactive) | > 30 µM (inactive) | > 30 µM (inactive) | > 30 µM (inactive) | > 30 µM (inactive) |  |
| Cn1cnc2c(F)c(Nc3ccc(Br)cc3Cl)c(C(=O)NOCCO)cc21 [SELUMETINIB] | > 30 µM (inactive) | > 30 µM (inactive) |  |  |  |  |  |  |  |  |  |  |  |
| COCCN1CCN(Cc2ccc(-c3n[nH]c4c3C(=O)c3c(NC(=O)NN5CCOCC5)cccc3-4)cc2)CC1 [RGB-286638] | > 30 µM (inactive) | > 30 µM (inactive) | > 30 µM (inactive) | > 30 µM (inactive) | > 30 µM (inactive) | 0.007 µM (active) | > 30 µM (inactive) | > 30 µM (inactive) | 0.08 µM (active) | 1.36 µM | > 30 µM (inactive) | > 30 µM (inactive) |  |

Further lines, with some results ahead:

| Kd [5] | Kd [9] | Compound | Kd [1] | Kd [2] | Kd [3] | Kd [4] | Kd [6] | Kd [7] | Kd [8] | Kd [10] | Kd [11] | Kd [12] | Kd [13] |
| --- | --- | --- | --- | --- | --- | --- | --- | --- | --- | --- | --- | --- | --- |
| > 30 µM (inactive) | > 30 µM (inactive) | COc1cc2c(N3CCN(C(=O)Nc4ccc(OC(C)C)cc4)CC3)ncnc2cc1OCCCN1CCCCC1 [TANDUTINIB] |  |  |  |  |  |  |  |  |  |  |  |
| > 30 µM (inactive) | > 30 µM (inactive) | CN(C)C/C=C/C(=O)Nc1cc2c(Nc3ccc(F)c(Cl)c3)ncnc2cc1O[C@H]1CCOC1 [AFATINIB] |  |  |  |  |  |  |  |  |  |  |  |
| > 30 µM (inactive) | > 30 µM (inactive) | c1cc(OCCN2CCCCC2)cc(-c2n[nH]c3ccc(-c4nc[nH]n4)cc23)c1 [CC-401] | > 30 µM (inactive) | > 30 µM (inactive) | > 30 µM (inactive) | > 30 µM (inactive) | > 30 µM (inactive) | > 30 µM (inactive) | > 30 µM (inactive) | > 30 µM (inactive) | > 30 µM (inactive) | > 30 µM (inactive) |  |
| > 30 µM (inactive) | > 30 µM (inactive) | C[C@@]1(C(=O)Nc2ccc(F)nc2)CCCN1c1nc(Nc2cc(C3CC3)n[nH]2)c2cccn2n1 [BMS-754807] |  |  |  |  |  |  |  |  |  |  |  |
| > 30 µM (inactive) | > 30 µM (inactive) | CC1(C)CNc2cc(NC(=O)c3cccnc3NCc3ccncc3)ccc21 [MOTESANIB] |  |  |  |  |  |  |  |  |  |  |  |
| > 30 µM (inactive) | > 30 µM (inactive) | CCN(CCCOc1ccc2c(Nc3cc(CC(=O)Nc4cccc(F)c4)n[nH]3)ncnc2c1)CCOP(=O)(O)O [BARASERTIB] | > 30 µM (inactive) | > 30 µM (inactive) | > 30 µM (inactive) |  | > 30 µM (inactive) | > 30 µM (inactive) | > 30 µM (inactive) |  | > 30 µM (inactive) |  |  |
|  | > 30 µM (inactive) | O=C(O)c1ccc2c(c1)nc(Nc1cccc(Cl)c1)c1ccncc12 [SILMITASERTIB] | > 30 µM (inactive) | > 30 µM (inactive) | > 30 µM (inactive) | 17.3 µM (active) | > 30 µM (inactive) | > 30 µM (inactive) | > 30 µM (inactive) | > 30 µM (inactive) | > 30 µM (inactive) | > 30 µM (inactive) |  |
